Measurements taken from publication PMC8892206, “An RRx-001 Analogue With Potent Anti-NLRP3 Inflammasome Activity but Without High-Energy Nitro Functional Groups” (Frontiers in Pharmacology, 2022).

Biological target: T1, NLRP3 (Homo sapiens, UniProt Q96P20)
T1 construct: purified human His-GFP-NLRP3; NACHT domain mapped by DARTS
Experiment: microscale thermophoresis with purified GFP-NLRP3; DARTS and C409A mutation support
Type: binding

T1 sequence (Q96P20 whole entry, the tested form may be a part): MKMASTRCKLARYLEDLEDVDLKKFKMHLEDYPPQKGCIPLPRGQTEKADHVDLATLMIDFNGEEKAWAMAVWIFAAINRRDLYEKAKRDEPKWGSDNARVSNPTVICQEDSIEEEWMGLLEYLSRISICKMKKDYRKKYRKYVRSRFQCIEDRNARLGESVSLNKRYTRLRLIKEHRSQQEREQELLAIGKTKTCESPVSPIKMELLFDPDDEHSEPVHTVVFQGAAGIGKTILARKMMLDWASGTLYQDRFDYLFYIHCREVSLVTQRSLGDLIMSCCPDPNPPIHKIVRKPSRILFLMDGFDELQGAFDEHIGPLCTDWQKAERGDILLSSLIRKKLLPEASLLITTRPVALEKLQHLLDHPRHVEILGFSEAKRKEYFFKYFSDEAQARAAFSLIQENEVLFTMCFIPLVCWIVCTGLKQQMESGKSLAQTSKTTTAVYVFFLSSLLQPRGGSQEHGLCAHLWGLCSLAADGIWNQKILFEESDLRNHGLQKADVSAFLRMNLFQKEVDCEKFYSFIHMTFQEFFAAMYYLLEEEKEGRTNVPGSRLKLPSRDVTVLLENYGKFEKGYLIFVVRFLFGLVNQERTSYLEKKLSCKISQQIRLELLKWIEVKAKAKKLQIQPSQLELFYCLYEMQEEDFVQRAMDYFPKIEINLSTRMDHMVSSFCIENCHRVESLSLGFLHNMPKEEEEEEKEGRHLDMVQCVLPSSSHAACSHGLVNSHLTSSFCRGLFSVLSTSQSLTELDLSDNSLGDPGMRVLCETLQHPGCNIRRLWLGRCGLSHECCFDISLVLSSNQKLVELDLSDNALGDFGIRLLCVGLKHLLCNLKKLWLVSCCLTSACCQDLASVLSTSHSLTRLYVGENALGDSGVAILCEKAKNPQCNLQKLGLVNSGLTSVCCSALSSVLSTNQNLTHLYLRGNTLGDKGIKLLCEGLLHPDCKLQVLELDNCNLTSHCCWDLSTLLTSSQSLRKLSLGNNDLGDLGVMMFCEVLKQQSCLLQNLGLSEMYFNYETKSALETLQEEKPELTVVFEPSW

Kd: 48.2 nM
Structure (SMILES): O=C(CBr)NCc1ccc(C(F)(F)F)cc1 [149-01]
